Consider 1 molecule from patent publication US12351587B2, “Bicyclic compound as RIP-1 kinase inhibitor and application thereof” (MEDSHINE DISCOVERY INC., priority 2019, dated 2025).

A short description of series [1]: Pharmacokinetic parameters in dogs. Type of series: in vivo. The settings on record: beagle, plasma, dog. The protocol:
Four healthy adult beagle dogs were selected and randomly divided into two groups. One group was given the assay compound by intravenous injection, and the other group was given the assay compound by gavage. Plasma samples were collected respectively from animals in the intravenous group and gavage group at 0.083, 0.25, 0.5, 1.0, 2.0, 4.0, 6.0, 8.0, 24 hours after administration. The blood concentration was determined by LC-MS/MS method. Relevant pharmacokinetic parameters were calculated by WinNonlin™ Version 6.3 (Pharsight. Mountain View, CA) pharmacokinetic software using non-compartmental model and linear logarithmic trapezoidal method. AUC0-last represents the area under the plasma concentration-time curve from zero time point to the last detectable concentration time point; Cmax represents the peak concentration; Tmax represents the time to reach the peak; T1/2 represents the half-life; CL represents the clearance rate; Vdss represents apparent volume of distribution; p.o. represents per os; i.v. represents intravenous injection; and F % represents oral bioavailability.

The next series relates to U937 cells. The experiment in a line: U937 cell activity assay: TNFα/QVD-OPh-induced programmed cell necrosis (necroptosis). It counts as cell-based, human. The settings on record: Homo sapiens, U-937, 24 h, QVD-OPh 25 μM + TNF-α 100 ng/mL, CellTiter Glo. The protocol: 1.2 Instrument and Materials
Envision plate reader (Perkin Elmer, Cat #2104-0010)
1.3 Formulation of Reagents • (1) 1×DPSB: To 100 mL of 10×DPBS was added 900 mL of deionized water. • (2) 1640 complete medium: To 89 mL of RPMI-1640 medium were added 10 mL of FBS and 1 mL of penicillin/streptomycin 2. Assay Steps • 1. U937 cells were centrifuged, and then the medium was discarded. The cells were resuspended in 1640 complete medium and counted. The cell concentration was adjusted to 5×10^5 cells/mL for use, and the cells were arranged according to compounds to be assayed. • 2. To the prepared resuspension of U937 cells were added QVD-OPh at a final concentration of 25 μM and TNF-α at a final concentration of 100 ng/mL, and then the mixture was mixed gently. • 3. To a 384-well plate was added 30 μL/well of U937 cells containing 25 μM of QVD-OPh and TNF-α at a final concentration of 100 ng/mL, and blank control wells without QVD-OPh and TNF-α were set up. • 4. To the dosing group […] added 10 μL of the assay compound at 4 times the preset concentration, and to the blank control well was added DMSO at the corresponding concentration. • 5. The 384-well plate was placed in a 37° C. and 5% CO2 cell incubator for 24 hours. • 6. After 24 hours, the 384-well plate was taken out and equilibrated at room temperature for 20 minutes. • 7. 40 μL of CTG was added to each well, and then the plate was shaken on a shaker in the dark for 2 minutes. • 8. The plate was incubated at room temperature in the dark for 10 minutes, and then read using an Envision plate reader.
In general terms: Cellular ATP, detected with luciferase, serves as a proxy for viable cell number.

Another series concerns the target T1, LIMK2 (Homo sapiens, UniProt P53671).
T1 construct: purchased Eurofins Pharma Discovery Service
The experiment in a line: Kinase selectivity assay (Eurofins, 33P radiolabeled kinase activity): LIMK2. Type of series: biochemical. The settings on record: WX009 1 μM, ATP 10 μM, read-out: Inhibition rate. On the procedure: The purpose of this assay was to detect the in vitro inhibitory activity of WX009 on a variety of kinases. The kinases used in this assay included 413 kinases, and the activity detection method was provided by Eurofins Pharma Discovery Service A method of detecting ^33P radiolabeled kinase activity was used for the assay. The concentration of WX009 was 1 μM, and the concentration of ATP was 10 μM.

The subject of the next series is L929 cells. The experiment in a line: In vitro activity assay of mouse RIP1: L929 cell TNFα/QVD-OPh-induced necroptosis. The settings on record: TNF-α 50 ng/mL + Q-VD 50 μM, 24 h, CellTiter Glo. It counts as cell-based. The protocol:
Assay Example 2: In Vitro Activity Assay of Mouse RIP1
L929 (purchased from ATCC, Item No.: CCL-1)
Instrument Microplate reader (Perkin Elmer, Envision) Formulation of Reagents L929 cell complete medium: EMEM+10% horse serum (volume ratio)+1% double antibiotics (volume ratio) Assay Step • 1. The cultured L929 cells were digested with trypsin, centrifuged, resuspended in complete culture medium, and then counted. The cell concentration was then diluted to 1×10^5/mL with complete culture medium. • 2. The cell suspension was added to a 96-well plate at 100 μL per well and incubated at 37° C. and 5% CO2 for 24 h. • 3. Different concentrations of assay compounds were added to each well, and dimethyl sulfoxide was added to the control group. The plate was incubated at 37° C. and 5% CO2 for 1 h. • 4. To each well were added TNF-α at a final concentration of 50 ng/mL and Q-VD at a final concentration of 50 μM, and the plate was incubated at 37° C. and 5% CO2 for 24 h. • 5. To each well was added 50 μL of CellTiter Glo […], and the plate was shaken in the dark for 10 min. • 6. The plate was read on the microplate reader.

T1 sequence (P53671 whole entry, species assumed): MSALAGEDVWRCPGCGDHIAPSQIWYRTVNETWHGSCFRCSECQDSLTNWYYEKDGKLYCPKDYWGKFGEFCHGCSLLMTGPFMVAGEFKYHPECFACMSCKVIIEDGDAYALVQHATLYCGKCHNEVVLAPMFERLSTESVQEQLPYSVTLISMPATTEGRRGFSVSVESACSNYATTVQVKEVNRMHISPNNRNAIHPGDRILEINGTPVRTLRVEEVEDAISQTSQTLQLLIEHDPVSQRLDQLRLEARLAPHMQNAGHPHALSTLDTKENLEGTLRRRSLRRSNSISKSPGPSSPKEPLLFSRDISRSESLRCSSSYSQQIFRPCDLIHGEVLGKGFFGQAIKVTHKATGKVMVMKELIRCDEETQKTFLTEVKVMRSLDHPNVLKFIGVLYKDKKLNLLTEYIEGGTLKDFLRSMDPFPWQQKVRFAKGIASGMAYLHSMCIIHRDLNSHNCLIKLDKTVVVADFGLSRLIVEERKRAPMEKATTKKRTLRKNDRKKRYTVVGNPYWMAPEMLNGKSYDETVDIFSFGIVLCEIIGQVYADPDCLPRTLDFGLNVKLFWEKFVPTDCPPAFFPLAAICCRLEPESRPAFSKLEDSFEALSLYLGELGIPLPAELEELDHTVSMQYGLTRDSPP

As a reminder, the AUC(0-t) is the area under the concentration-time curve up to a stated or last time point. The low end stands for low exposure, the high end for high exposure. A word on the clearance: it is the rate of elimination divided by the concentration. The low end stands for inefficient removal, the high end for efficient removal. As a reminder, the half-life is the time needed for the level to fall by half in the phase considered. One may read the Cmax as the peak of the concentration-time curve. What is called Tmax is the time from dosing to the highest level. In general, bioavailability refers to dose-corrected exposure relative to a reference, in per cent. Read a high bioavailability as good availability. Broadly, the IC50 is the concentration that gives 50% inhibition. As a reminder, the inhibition is the percentage by which the read-out fell short of the control. In series [1] (3 mg/kg, iv = 3 mpk), `CN1C(=S)[C@@H](NC(=O)c2ncn(Cc3ccccc3)n2)COc2cccnc21` [WX009] showed an AUC(0-t) of 20.8 µM·h, a clearance of 6.2 mL/min/kg and a half-life of 5.5 h. The Vd in series [1] (3 mg/kg, iv = 3 mpk, read-out: Vdss) is 2.4 L/kg. Moreover, in series [1] (10 mg/kg, po = 10 mpk), the AUC(0-t) came out at 23.6 µM·h, the peak concentration (Cmax) turned out to be 284 nM and the Tmax amounted to 2 h. The bioavailability in series [1] (po = 10 mpk vs iv = 3 mpk) was 34.2%. Besides, the IC50 in the series with U937 cells worked out at 0.0014 µM. Moreover, on LIMK2, the inhibition at 1 µM lay within 50 to 79%. The IC50 in the series on L929 cells came out at 0.103 µM.
